Laboratory results as given in patent US8822523B2, “Carboxamide microbiocides” (Syngenta Participations AG, priority 2011, dated 2014).

Assays:
Puccinia recondita [1] = test: Puccinia recondita / wheat / leaf disc curative (brown rust); assay type: in vivo; details: foliar, 24 h, 200 ppm active ingredient applied one day after inoculation, wheat leaf segments, assessed 8 dpi, read-out: fungal growth inhibition
Protocol: Puccinia recondita/Wheat/Leaf Disc Curative (Brown Rust)
Wheat leaf segments were placed on agar in multiwell plates (24-well format). The leaf disks were then inoculated with a spore suspension of the fungus One day after inoculation the test solution was applied (200 ppm active ingredient). After appropriate incubation the activity of a compound was assessed 8 dpi (days after inoculation) as curative fungicidal activity. The activity of a compound was expressed as fungal growth inhibition (0=no growth inhibition, ratings of 80% to 99% mean good to very good inhibition, 100%=complete inhibition).

[2] = test system: Mycosphaerella graminicola (Septoria tritici); test: Mycosphaerella graminicola (Septoria tritici) / liquid culture (Septoria blotch); assay type: cell-based; details: Zymoseptoria tritici, 96 h; 200 ppm active ingredient, PDB potato dextrose broth, 24° C., photometrically after 4 days; read-out: fungal growth inhibition
Protocol: Mycosphaerella graminicola (Septoria tritici)/Liquid Culture (Septoria blotch)
Conidia of the fungus from cryogenic storage were directly mixed into nutrient broth (PDB potato dextrose broth). After placing a (DMSO) solution of the test compounds (200 ppm active ingredient) into a microtiter plate (96-well format) the nutrient broth containing the fungal spores was added. The test plates were incubated at 24° C. and the inhibition of growth was measured photometrically after 4 days. The activity of a compound was expressed as fungal growth inhibition (0=no growth inhibition, ratings of 80% to 99% mean good to very good inhibition, 100%=complete inhibition).

[3] = test system: Mycosphaerella arachidis (Cercospora arachidicola); test: Mycosphaerella arachidis (Cercospora arachidicola) / liquid culture (early leaf spot); assay type: cell-based; details: 200 ppm active ingredient, PDB potato dextrose broth, 24° C., photometrically after 6-7 days, read-out: fungal growth inhibition
Protocol: Mycosphaerella arachidis (Cercospora arachidicola)/Liquid Culture (Early Leaf Spot)
Conidia of the fungus from cryogenic storage were directly mixed into nutrient broth (PDB potato dextrose broth). After placing a (DMSO) solution of the test compounds (200 ppm active ingredient) into a microtiter plate (96-well format) the nutrient broth containing the fungal spores was added. The test plates were incubated at 24° C. and the inhibition of growth was measured photometrically after 6-7 days. The activity of a compound was expressed as fungal growth inhibition (0=no growth inhibition, ratings of 80% to 99% mean good to very good inhibition, 100%=complete inhibition).

Puccinia recondita [4] = test: Puccinia recondita / wheat / leaf disc preventative (brown rust); assay type: in vivo; details: foliar, 200 ppm active ingredient, wheat leaf segments, preventive, assessed 8 dpi, read-out: fungal growth inhibition
Protocol: Puccinia recondita/Wheat/Leaf Disc Preventative (Brown Rust)
Wheat leaf segments were placed on agar in multiwell plates (24-well format) and sprayed with test solutions (200 ppm active ingredient). After drying, the leaf disks were inoculated with a spore suspension of the fungus. After appropriate incubation the activity of a compound was assessed 8 dpi (days after inoculation) as preventive fungicidal activity. The activity of a compound was expressed as fungal growth inhibition (0=no growth inhibition, ratings of 80% to 99% mean good to very good inhibition, 100%=complete inhibition).

Measured: inhibition at 200 ppm

Cn1cc(C(=O)NOCC2CCCCc3cc(C#CC(C)(C)C)sc32)c(C(F)F)n1 (stereo not shown) [Compound 2.47, 3-Difluoromethyl-1-methyl-1H-pyrazole-4-carboxylic acid [2-(3,3-dimethylbut-1-ynyl)-5,6,7,8-tetrahydro-4H-cyclohepta[b]thiophen-8-yl]methoxy amide]
≥ 80%: all assays above
